One assay concerns the target T1, CcGSTFuA2461.
T1 construct: gene GSTFuA2461; full length, untagged, pET-3d, E. coli BL21(DE3) pSBET; primers encode N-term MAITFYDL, C-term TGSKL
Description: inhibition of MUA esterase activity, fluorescence. The class given is biochemical, Coprinopsis cinerea. Conditions: competitive vs MUA; no GSH; 30 mM Tris-HCl pH 8; 2 µM enzyme; read-out: PcGSTFuA1 / ANS. The text has this:
inhibition of MUA esterase activity, fluorescence on CcGSTFuA2461

A further assay deals with T2, CcGSTFuA6800.
T2 construct: gene GSTFuA6800; full length, untagged, pET-3d, E. coli BL21(DE3) pSBET; primers encode N-term MAIILYDL, C-term YTTVV
As to the kind of experiment: esterase activity, fluorescence. The class given is biochemical, Coprinopsis cinerea. Conditions: no GSH. The text has this: esterase activity, fluorescence on CcGSTFuA6800

Assay [1] concerns the target T3, PcGSTFuA3.
T3 construct: gene GSTFuA3; full length, untagged, pET-3d, E. coli BL21(DE3) pSBET; Ala inserted after Met1; dimer; primers encode N-term MASLEPII, C-term EFVDV
Description: ANS displacement, fluorescence. As to conditions: TE buffer pH 8.0; 3 µM enzyme; ANS probe at L-site overlapping G-site. The class given is binding, Phanerodontia chrysosporium. The text has this: ANS displacement, fluorescence on PcGSTFuA3

For assay [2], the target named is T4, CcGSTFuA6801.
T4 construct: gene GSTFuA6801; full length, untagged, pET-3d, E. coli BL21(DE3) pSBET; primers encode N-term MAITFYDI, C-term YHTVA
As to the kind of experiment: ANS displacement, fluorescence. Format: binding, Coprinopsis cinerea. As to conditions: TE buffer pH 8.0; 3 µM enzyme; ANS probe; read-out: PcGSTFuA3 / ANS. The text has this: ANS displacement, fluorescence on CcGSTFuA6801

Another assay concerns the target T5, PcGSTFuA4 (Phanerodontia chrysosporium, UniProt M1NR33).
T5 construct: full length, untagged, pET-3d, E. coli BL21(DE3) pSBET; primers encode N-term MADVITLY, C-term AHVDL
Description: ANS displacement, fluorescence. The class given is binding. Conditions: TE buffer pH 8.0; 3 µM enzyme; ANS probe at L-site overlapping G-site. The text has this:
ANS displacement, fluorescence on PcGSTFuA4

A further assay deals with T6, PcGSTFuA1 (Phanerodontia chrysosporium, UniProt I6ZUH3).
T6 construct: full length, untagged, pET-3d, E. coli BL21(DE3) pSBET; Ala inserted after Met1; dimer; primers encode N-term MAQPIVF, C-term EQVDV
T6 sequence (I6ZUH3 entry or part of it): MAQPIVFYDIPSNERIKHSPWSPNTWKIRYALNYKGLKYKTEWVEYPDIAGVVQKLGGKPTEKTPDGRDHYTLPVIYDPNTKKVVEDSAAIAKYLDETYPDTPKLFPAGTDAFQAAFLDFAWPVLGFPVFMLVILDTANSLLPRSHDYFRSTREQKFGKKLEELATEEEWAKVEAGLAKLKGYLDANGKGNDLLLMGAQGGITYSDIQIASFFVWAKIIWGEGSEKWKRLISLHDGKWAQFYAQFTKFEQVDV
Description: ANS displacement, fluorescence. The class given is binding. The text has this:
ANS displacement, fluorescence on PcGSTFuA1

Another assay concerns the target T7, CcGSTFuA6820.
T7 construct: gene GSTFuA6820; full length, untagged, pET-3d, E. coli BL21(DE3) pSBET; primers encode N-term MAITLYDS, C-term YQAVH
Description: inhibition of MUA esterase activity, fluorescence. As to conditions: non-competitive vs MUA; no GSH; 30 mM Tris-HCl pH 8; 2 µM enzyme; read-out: PcGSTFuA4 / ANS. The class given is biochemical, Coprinopsis cinerea. The text has this: inhibition of MUA esterase activity, fluorescence on CcGSTFuA6820

Assay [3] concerns T8, PcGSTFuA2.
T8 construct: gene GSTFuA2; full length, untagged, pET-3d, E. coli BL21(DE3) pSBET; Ala inserted after Met1; dimer; primers encode N-term MASQPIVF, C-term ERADD
Description: esterase activity, fluorescence. Format: biochemical, Phanerodontia chrysosporium. As to conditions: no GSH; 30 mM Tris-HCl pH 8. From the text: esterase activity, fluorescence on PcGSTFuA2

Assay [4] deals with T8, PcGSTFuA2. Description: ANS displacement, fluorescence. Format: binding, Phanerodontia chrysosporium. Conditions: TE buffer pH 8.0; 3 µM enzyme; ANS probe at L-site overlapping G-site. The text has this:
ANS displacement, fluorescence on PcGSTFuA2

Assay [5] relates to T3, PcGSTFuA3. As to the kind of experiment: GSH conjugation, absorbance […] nm. The class given is biochemical, Phanerodontia chrysosporium. Conditions: 5 mM GSH; pH 6.5; 2% acetonitrile.
Assay [6] deals with T4, CcGSTFuA6801. Description: GSH conjugation, absorbance […] nm. Format: biochemical, Coprinopsis cinerea. Conditions: 5 mM GSH; pH 6.5; 2% acetonitrile.

We go through 8 molecules from PMC3835915, “Diversification of Fungal Specific Class A Glutathione Transferases in Saprotrophic Fungi” (PLoS ONE, 2013).

Molecules are shown by their SMILES. Read-outs that look alike come from different tables or passages of the source.

T5 sequence (M1NR33 entry or part of it): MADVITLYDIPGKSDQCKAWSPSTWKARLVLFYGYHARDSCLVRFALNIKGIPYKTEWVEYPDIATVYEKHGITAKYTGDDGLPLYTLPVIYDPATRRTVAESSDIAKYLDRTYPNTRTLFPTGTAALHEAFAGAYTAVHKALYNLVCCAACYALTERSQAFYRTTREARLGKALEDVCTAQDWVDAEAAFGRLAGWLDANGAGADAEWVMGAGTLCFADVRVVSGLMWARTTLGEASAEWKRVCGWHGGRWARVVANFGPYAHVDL

Consider `O=C(O)c1ccc(Cl)c([N+](=O)[O-])c1` [4-chloro-3-nitrobenzoic acid], for which, on CcGSTFuA2461, the Ki turned out to be 287 ± 29.7 µM.
With `CC(=O)Oc1ccc2c(c1)Oc1cc(OC(C)=O)ccc1C21OC(=O)c2cc(CCl)ccc21` [CMFDA], the Km in the assay on CcGSTFuA6800 (50 mM phosphate pH 8.0, read-out: CcGSTFuA6800) was determined as 0.153 ± 0.023 µM.
For the molecule `COc1cc(/C=C/C=O)ccc1O` [Coniferaldehyde], the IC50 on PcGSTFuA3 [1] was found to be 68.4 ± 25.3 µM; on CcGSTFuA6801 [2] it was 327 ± 50.6 µM; on PcGSTFuA4, 147 ± 5.1 µM; at PcGSTFuA1 it was 62.3 ± 1.2 µM.
In the case of `O=C(O)c1cc(O)c(O)c(O)c1` [Gallic acid], the Ki on CcGSTFuA2461 is 114 ± 8.9 µM; on CcGSTFuA6820, 566 ± 16.5 µM.
As to `CC(=O)Oc1ccc2c(C)cc(=O)oc2c1` [MUA], the Km in the assay on CcGSTFuA6800 (30 mM Tris-HCl pH 8, read-out: PcGSTFUA2) was determined as 25.4 ± 4.37 µM; in the assay with PcGSTFuA2 [3], 23.5 ± 6.2 µM.
Take `COc1cc(C=O)cc(OC)c1O` [Syringaldehyde]: the IC50 at PcGSTFuA3 [1] turned out to be 37.2 ± 3.8 µM; on CcGSTFuA6801 [2], 276 ± 97.8 µM; on PcGSTFuA2 [4] it was 89.3 ± 2.8 µM; on PcGSTFuA4, 199 ± 25.2 µM; on PcGSTFuA1, 62.5 ± 1.6 µM. For the same molecule, at CcGSTFuA6820, the Ki came to 594 ± 37.6 µM.
At PcGSTFuA2 [4], `COc1cc(C=O)ccc1O` [Vanillin] yielded an IC50 of 84.7 ± 5.2 µM.
With `S=C=NCCc1ccccc1` [phenethyl-ITC], the Km was 53.2 ± 5.37 µM in the assay on PcGSTFuA3 [5] and 41.6 ± 3.73 µM with CcGSTFuA6801 [6].
